Test results as given in patent publication US7205382B2, “Peptides, the production and use thereof for binding immunoglobulins” (Fresenius Medical Care Affina GmbH, priority 2000, dated 2007).
Bridge positions count the residues as written; N and C are the ends. Square brackets hold non-standard residues; d marks the D form. Ends that are not written are not given here. cellulose = not defined here; βAla = NCCC(=O)O

How the values were obtained:
Format in all cases: binding
Parameters in all cases: key: No binding of immunoglobulin for the defined peptide variant, detection negative: 0; Binding of immunoglobulin for the defined peptide variant, detection positive: +
[1] = test system: immunoglobulins in human plasma; assay: Cellulose-immobilized 13-mer peptide variants incubated with human plasma, anti-human IgG-AP detection; details: human plasma as sample, diluted 1:10,000 in blocking buffer, 3 h room temperature
Method: (§1) Peptides consisting of 13 amino acids were synthesized by solid phase synthesis (Houghten, 1985) on a cellulose matrix with (βA)(βA) as a spacer group.
(§2) The immobilized peptides were tested for their immunoglobulin binding capability by incubation with human IgG-Fc in a buffered solution and by incubation with human plasma.
(§3) Thus, the peptide variants immobilized on solid phases were washed with T-TBS buffer (136 mM NaCl, 1.6 mM KCl, 0.05% (v/v) Tween 20, 50 mM Tris-HCl, pH 8.0) and subsequently treated with blocking buffers (5% (w/v) saccharose, 4% (w/v) bovine serum albumin in T-TBS). Incubation of the immobilized peptides with IgG-Fc (1 μg/ml) in blocking buffer and human serum (diluted 1:10,000 in blocking buffer) was effected for 3 h at room temperature. For checking the specificity of the binding, buffered serum albumin solution (blocking buffer) without addition was included as a control. Thereafter, the peptide variants immobilized on the solid phases were washed three more times with T-TBS buffer.
(§4) After incubation with alkaline phosphatase-conjugated anti-human IgG antibody (1.2 μg/ml) in blocking buffer, detection of the immunoglobulin binding was effected by means of NBT (nitroblue tetrazolium chloride)/BCIP (5-bromo-4-chloro-3-indolyl phosphate toluidine salt) as a substrate (200 μl of parent solution (18.75 mg/ml NBT and 9.4 mg/ml BCIP in 67% (v/v) DMSO) in 10 ml developing buffer (100 mM Tris-HCl, 100 mM NaCl, 5 mM MgCl2, pH 9.5)).

serum albumin = assay: Cellulose-immobilized 13-mer peptide variants incubated with serum albumin (negative control), anti-human IgG-AP detection; details: blocking buffer without addition, 3 h room temperature
Method: as §1, §2, §3, §4

human IgG-Fc = assay: Cellulose-immobilized 13-mer peptide variants incubated with human IgG-Fc, anti-human IgG-AP detection; details: IgG-Fc 1 μg/ml in blocking buffer, 3 h room temperature
Method: as §1, §2, §3, §4

| Result for incubation with human plasma (immunoglobulin binding detection) [1] | Result for incubation with serum albumin (immunoglobulin binding detection) (serum albumin) | Result for incubation with human IgG-Fc (immunoglobulin binding detection) (human IgG-Fc) | Substance |
| --- | --- | --- | --- |
| 0 | 0 | 0 | 02S: cellulose-bound 13-mer variant DSAWHLGELVWCT-(βA)(βA) (DSAWHLGELVWCT[βAla][βAla]; not fully specified; printed as DSAWHLGELVWCT-(βA)(βA); also: cellulose-bound) |
| 0 | 0 | 0 | 11P: cellulose-bound 13-mer variant DCAWHLGELVPCT-(βA)(βA) |
| 0 | 0 | 0 | 06W: cellulose-bound 13-mer variant DCAWHWGELVWCT-(βA)(βA) (DCAWHWGELVWCT-{βAla-βAla-cellulose}; disulfide 2-12 (inferred); not fully specified (N-terminus); printed as DCAWHWGELVWCT-(βA)(βA); reading uncertain) |
| 0 | 0 | + | 01M: cellulose-bound 13-mer variant MCAWHLGELVWCT-(βA)(βA) (MCAWHLGELVWCT-{βAla-βAla-cellulose}; disulfide 2-12 (inferred); reading uncertain; also: printed as MCAWHLGELVWCT-(βA)(βA)) |
| 0 | 0 | 0 | 05I: cellulose-bound 13-mer variant DCAWILGELVWCT-(βA)(βA) (disulfide 2-12 (inferred); not fully specified (N-terminus, C-terminus); printed as DCAWILGELVWCT-(βA)(βA); also: cellulose-bound) |
| 0 | 0 | 0 | 09V: cellulose-bound 13-mer variant DCAWHLGEVVWCT-(βA)(βA) (DCAWHLGEVVWCT-{βAla-βAla-cellulose}; disulfide 2-12 (inferred); reading uncertain; also: printed as DCAWHLGEVVWCT-(βA)(βA)) |
| 0 | 0 | 0 | 06P: cellulose-bound 13-mer variant DCAWHPGELVWCT-(βA)(βA) (DCAWHPGELVWCT-{βAla-βAla-cellulose}; disulfide 2-12 (inferred); not fully specified (N-terminus); printed as DCAWHPGELVWCT-(βA)(βA); reading uncertain) |
| 0 | 0 | 0 | 09Y: cellulose-bound 13-mer variant DCAWHLGEYVWCT-(βA)(βA) (DCAWHLGEYVWCT-{βAla-βAla-cellulose}; disulfide 2-12 (inferred); reading uncertain; also: printed as DCAWHLGEYVWCT-(βA)(βA)) |
| 0 | 0 | 0 | 07S: cellulose-bound 13-mer variant DCAWHLSELVWCT-(βA)(βA) (DCAWHLSELVWCT-{βAla-βAla-cellulose}; disulfide 2-12 (inferred); not fully specified (N-terminus); printed as DCAWHLSELVWCT-(βA)(βA); reading uncertain) |
| + | 0 | + | 04H: cellulose-bound 13-mer variant DCAHHLGELVWCT-(βA)(βA) (DCAHHLGELVWCT[βAla][βAla]; disulfide 2-12 (inferred); also: cellulose-bound) |
| 0 | 0 | 0 | 08F: cellulose-bound 13-mer variant DCAWHLGFLVWCT-(βA)(βA) (DCAWHLGFLVWCT-{βAla-βAla-cellulose}; disulfide 2-12 (inferred); not fully specified (N-terminus); printed as DCAWHLGFLVWCT-(βA)(βA); reading uncertain) |
| 0 | 0 | 0 | 12D: cellulose-bound 13-mer variant DCAWHLGELVWDT-(βA)(βA) (DCAWHLGELVWDT-{βAla-βAla-cellulose}; not fully specified; printed as DCAWHLGELVWDT-(βA)(βA); reading uncertain) |
| 0 | 0 | 0 | 05A: cellulose-bound 13-mer variant DCAWALGELVWCT-(βA)(βA) (disulfide 2-12 (inferred); not fully specified (N-terminus, C-terminus); printed as DCAWALGELVWCT-(βA)(βA); also: cellulose-bound) |
| + | 0 | + | 04T: cellulose-bound 13-mer variant DCATHLGELVWCT-(βA)(βA) (disulfide 2-12 (inferred); not fully specified (N-terminus, C-terminus); printed as DCATHLGELVWCT-(βA)(βA); also: cellulose-bound) |
| 0 | 0 | 0 | 05W: cellulose-bound 13-mer variant DCAWWLGELVWCT-(βA)(βA) (disulfide 2-12 (inferred); not fully specified (N-terminus, C-terminus); printed as DCAWWLGELVWCT-(βA)(βA); also: cellulose-bound) |
| + | 0 | + | 08Q: cellulose-bound 13-mer variant DCAWHLGQLVWCT-(βA)(βA) (DCAWHLGQLVWCT-{βAla-βAla-cellulose}; disulfide 2-12 (inferred); reading uncertain; also: printed as DCAWHLGQLVWCT-(βA)(βA)) |
| 0 | 0 | 0 | 09F: cellulose-bound 13-mer variant DCAWHLGEFVWCT-(βA)(βA) (DCAWHLGEFVWCT-{βAla-βAla-cellulose}; disulfide 2-12 (inferred); reading uncertain; also: printed as DCAWHLGEFVWCT-(βA)(βA)) |
| 0 | 0 | 0 | 03P: cellulose-bound 13-mer variant DCPWHLGELVWCT-(βA)(βA) (DCPWHLGELVWCT-{βAla-βAla-cellulose}; disulfide 2-12 (inferred); reading uncertain; also: printed as DCPWHLGELVWCT-(βA)(βA)) |
| + | 0 | + | 04E: cellulose-bound 13-mer variant DCAEHLGELVWCT-(βA)(βA) (DCAEHLGELVWCT[βAla][βAla]; disulfide 2-12 (inferred); also: cellulose-bound) |
| + | 0 | + | 04K: cellulose-bound 13-mer variant DCAKHLGELVWCT-(βA)(βA) (DCAKHLGELVWCT[βAla][βAla]; disulfide 2-12 (inferred); also: cellulose-bound) |
| 0 | 0 | 0 | 11V: cellulose-bound 13-mer variant DCAWHLGELVVCT-(βA)(βA) |
